Values of other authors, collected in paper PMC11247627, “Evaluation of Antibacterial Functionalized Dihydropyrimidine Photoaffinity Probes Toward Mechanism of Action Studies” (ACS Medicinal Chemistry Letters, 2024).

Assays:
Settings in all cases: cited from earlier work
[1] = tested on: dihydrofolate reductase (DHFR); parameters: method as in PMID 18931753
[2] = tested on: MRSA; parameters: method as in PMID 18931753, PMID 16883415
[3] = tested on: mammalian toxicity; parameters: method as in PMID 18931753

CCOC(=O)C1=C(CC)NC(N)=NC1c1cc(Cl)cc(Cl)c1O (stereo not drawn) [compound 2, Emmacin]
DHFR inhibition (in words) [1]: previously reported to inhibit DHFR
MRSA growth inhibition (in words) [2]: found to inhibit MRSA growth
mammalian toxicity (in words) [3]: lack mammalian toxicity
